Laboratory results: US10227331B2 (priority 2015, dated 2019)
pIC50: −log10 of the molar value.

Legend:
[1] = tested on: P. aeruginosa expressing IMP-1, efflux− (MB9799); test: Efflux: concentration of MBL inhibitor which restores susceptibility to imipenem; format: cell-based, Pseudomonas aeruginosa; conditions: imipenem at 2 μg/mL, in the presence of a class A, C, D serine β-lactamase inhibitor closely related to relebactam
Text: (§1) The strain background is Pseudomonas aeruginosa PAO1.

[2] = tested on: Serratia marcescens expressing IMP-1 (CL5741); format: cell-based; conditions: with imipenem 1 μg/ml, 95% inhibition of bacterial growth; for Serratia marcescens MITC95: IMP-1 (CL5741)
In short: (§2)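 Restoration of imipenem susceptibility (1 μg/ml imipenem) was judged by absorbance after 22–24 h at 35° C. Test compound was added to bacteria suspended 1:100 in 1.1× CAMHB from overnight blood-agar cultures.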

[3] = tested on: Escherichia coli expressing NDM-1 (CLB30005, CLB30016); format: cell-based; conditions: with imipenem 1 μg/ml, 95% inhibition of bacterial growth; for Escherichia coli MITC95: NDM-1 (CLB30016)
In short: as §2

[4] = tested on: Klebsiella pneumoniae expressing VIM-1 (IHMA599644); format: cell-based; conditions: with imipenem 1 μg/ml, 95% inhibition of bacterial growth; for Klebsiella pneumoniae MITC95: VIM-1 (IHMA599644)
In short: as §2

NDM-1 = NDM-1 (Klebsiella pneumoniae, UniProt C7C422); test: biochemical; format: biochemical; conditions: CCF2-FA substrate, 2 hours at 25° C; read-out: NDM-1 IC50
NDM-1, sequence (C7C422 whole entry, looked up, species assumed): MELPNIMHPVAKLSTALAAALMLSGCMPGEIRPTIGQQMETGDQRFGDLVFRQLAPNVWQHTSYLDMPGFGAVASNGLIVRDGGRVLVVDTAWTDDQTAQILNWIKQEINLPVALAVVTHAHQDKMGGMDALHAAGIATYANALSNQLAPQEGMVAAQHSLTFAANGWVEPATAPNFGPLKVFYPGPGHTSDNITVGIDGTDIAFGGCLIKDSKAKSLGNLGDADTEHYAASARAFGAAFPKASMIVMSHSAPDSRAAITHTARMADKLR
In short: (§3)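 IC50 values derive from 4-parameter fits of percent inhibition against inhibitor concentration on semi-log axes. Activity was monitored by fluorescence with the CCF2-FA substrate after a 2-hour, 25° C incubation of compound, enzyme and substrate.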

IMP-1 = IMP-1 (Serratia marcescens, UniProt P52699); test: biochemical; format: biochemical; conditions: CCF2-FA substrate, 2 hours at 25° C; read-out: IMP-1 IC50
IMP-1, sequence (P52699 whole entry, looked up, species assumed): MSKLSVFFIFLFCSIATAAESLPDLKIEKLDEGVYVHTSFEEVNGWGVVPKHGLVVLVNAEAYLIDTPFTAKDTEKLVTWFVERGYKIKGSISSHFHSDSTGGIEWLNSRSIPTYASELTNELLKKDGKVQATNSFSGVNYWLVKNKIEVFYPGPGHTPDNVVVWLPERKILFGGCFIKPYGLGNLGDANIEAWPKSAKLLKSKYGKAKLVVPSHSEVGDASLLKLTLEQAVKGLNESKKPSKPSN
In short: as §3

VIM-1 = VIM-1 (Pseudomonas aeruginosa (strain ATCC 15692 / DSM 22644 / CIP 104116 / JCM 14847 / LMG 12228 / 1C / PRS 101 / PAO1), UniProt A0A0F7KYQ8); test: biochemical; conditions: CCF2-FA substrate, 2 hours at 25° C
In short: as §3

[5] = tested on: P. aeruginosa expressing IMP-1, efflux+ (MB9798); format: cell-based, Pseudomonas aeruginosa; conditions: for P. aeruginosa expressing IMP-1, efflux+ (MB9798) MITC95: imipenem at 2 μg/mL, in the presence of a class A, C, D serine β-lactamase inhibitor closely related to relebactam; for Efflux ratio: ratio MITC95 PA_9798/MITC95 PA_9799
Text: as §1

SMILES	P. aeruginosa expressing IMP-1, efflux− (MB9799) MITC95 [1]	Serratia marcescens MITC95 [2]	Escherichia coli MITC95 [3]	Klebsiella pneumoniae MITC95 [4]	pIC50 (NDM-1)	pIC50 (IMP-1)	pIC50 (VIM-1)	P. aeruginosa expressing IMP-1, efflux+ (MB9798) MITC95 [5]	Efflux ratio [5]	Serratia marcescens expressing IMP-1 (CL5741) MITC95 [2]	Escherichia coli expressing NDM-1 (CLB30016) MITC95 [3]	Klebsiella pneumoniae expressing VIM-1 (IHMA599644) MITC95 [4]
NCCS(=O)(=O)c1ccc(-c2cccc(C(=O)N[C@@H]3CCNC3)c2N)c(-c2nn[nH]n2)c1S(N)(=O)=O [Example 377, (R)-2-amino-4′-((2-aminoethyl)sulfonyl)-N-(pyrrolidin-3-yl)-3′-sulfamoyl-2′-(2H-tetrazol-5-yl)-[1,1′-biphenyl]-3-carboxamide]	1.563 µM	1.563 µM	1.563 µM	3.125 µM	8.75	8.73	9.17	3.125 µM	2.00	–	–	–
Nc1ncccc1-c1cc(-c2ccc(S(=O)(=O)C3CNC3)c(S(N)(=O)=O)c2-c2nnn[nH]2)ccn1 [Example 310, 3-(2′-Amino-[2,3′-bipyridin]-4-yl)-6-(azetidin-3-ylsulfonyl)-2-(1H-tetrazol-5-yl)benzenesulfonamide]	1.563 µM	1.563 µM	1.563 µM	3.125 µM	8.98	8.64	9.50	25 µM	15.99	–	–	–
C[C@@H](N)CS(=O)(=O)c1ccc(-c2cccc3[nH]cnc23)c(-c2nn[nH]n2)c1S(N)(=O)=O [Example 359]	0.7813 µM	1.563 µM	1.563 µM	1.563 µM	9.54	9.34	9.50	1.563 µM	2.00	–	–	–
NS(=O)(=O)c1c(S(=O)(=O)C2CNC2)ccc(-c2cccnc2N2CCOCC2)c1-c1nn[nH]n1 [Example 220, 6-(azetidin-3-ylsulfonyl)-3-(2-morpholinopyridin-3-yl)-2-(2H-tetrazol-5-yl) benzenesulfonamide]	3.125 µM	–	–	–	9.05	7.83	9.47	100 µM	32.00	12.5 µM	6.25 µM	12.5 µM
Cc1ccc(-c2ccc(S(=O)(=O)[C@H]3CCNC3)c(S(N)(=O)=O)c2-c2nn[nH]n2)c2nc(N)sc12 [Example 188, 3-(2-amino-7-methylbenzo[d]thiazol-4-yl)-6-((S)-pyrrolidin-3-ylsulfonyl)-2-(2H-tetrazol-5-yl)benzenesulfonamide]	0.7813 µM	–	–	–	10.36	9.96	9.95	1.563 µM	2.00	0.7813 µM	1.563 µM	1.563 µM
Nc1n[nH]c2cccc(-c3ccc(S(=O)(=O)C4CNC4)c(S(N)(=O)=O)c3-c3nnn[nH]3)c12 [Example 263, 3-(3-amino-1H-indazol-4-yl)-6-(azetidin-3-ylsulfonyl)-2-(1H-tetrazol-5-yl) benzenesulfonamide]	3.125 µM	1.563 µM	1.563 µM	6.25 µM	9.37	8.34	9.23	6.25 µM	2.00	–	–	–
NS(=O)(=O)c1c(S(=O)(=O)C2CNC2)ccc(C2CCOCC2)c1-c1nn[nH]n1 [Example 222, 6-(azetidin-3-ylsulfonyl)-3-(tetrahydro-2H-pyran-4-yl)-2-(2H-tetrazol-5-yl)benzenesulfonamide]	1.563 µM	–	–	–	8.83	8.37	8.61	100 µM	63.98	3.125 µM	3.125 µM	3.125 µM
Nc1nc2c(-c3ccc(S(=O)(=O)[C@@H]4CCNC4)c(S(N)(=O)=O)c3-c3nn[nH]n3)cccc2o1 [Example 189, 3-(2-aminobenzo[d]oxazol-4-yl)-6-((R)-pyrrolidin-3-ylsulfonyl)-2-(2H-tetrazol-5-yl)benzenesulfonamide]	0.7813 µM	–	–	–	9.66	9.48	9.38	0.7813 µM	1.00	1.563 µM	1.563 µM	1.563 µM
Nc1nc2c(-c3ccc(SC4CNC4)c(S(N)(=O)=O)c3-c3nn[nH]n3)cccc2[nH]1 [Example 2, 3-(2-amino-1H-benzo[d]imidazol-4-yl)-6-(azetidin-3-ylthio)-2-(2H-tetrazol-5-yl)benzenesulfonamide]	1.281 µM	–	–	–	8.65	7.12	7.13	6.25 µM	4.88	1.781 µM	0.5 µM	6.25 µM
Nc1n[nH]c2cc(-c3ccc(S(=O)(=O)C4CNC4)c(S(N)(=O)=O)c3-c3nn[nH]n3)ccc12 [Example 20]	1.563 µM	–	–	–	9.54	8.92	9.77	3.125 µM	2.00	1.563 µM	3.125 µM	3.125 µM
